Common to all, as to type: cell-based
In assay [1] the test system is U-87 MG, brain glioblastoma. Briefly: CellTiter-Glo cell viability assay, cancer cell cytotoxicity/anti-proliferation panel (Chempartner). The procedure:
(§1) In this study, the biological activity of certain compounds of the present invention on cancer cell cytotoxicity/anti-proliferation panel was tested using the CellTiter-Glo® cell viability assay. The compounds were dissolved in DMSO to make 10 mM solution.
(§2) The cell lines tested were all selected from the Chempartner's cell collection and included: Caco-2 ATCC colon adenocarcinoma; TE-6 RIKEN esophagus, carcinoma; PC-3 ATCC prostate adenocarcinoma; T47D, breast ductal carcinoma; U251, brain human glioma; A549, lung carcinoma; OMP-2, multiple myeloma; SK-HEP-1, liver adenocarcinoma; PANC-1, pancreas ductal carcinoma; AsPC-1, pancreas, ductal carcinoma; and U-87 MG, brain glioblastoma.
(§3) For the assays described herein, absolute inhibition of cells growth (%) and absolute IC50 (Abs IC50; […]) were used to derive a value that can be used to compare results within and across runs in the same assay, as well as between different assays.
(§4) • a. Prepare complete medium: Add FBS and appropriate additives according to the information sheet provided by the vendor. Mix gently. • b. Check the cell name and complete medium and passage number marked on the flask. For adherent cell lines, refer to c to k. For suspension cell lines, refer to g to k. • c. Remove and discard culture medium using a vacuum pump. • d. Briefly rinse the cell layer with 0.25% (w/v) trypsin-0.038% (w/v) EDTA solution to remove all traces of serum that contains trypsin inhibitor. • e. Add 3.0 ml of trypsin-EDTA solution to flask and observe cells under an inverted microscope until cell layer is dispersed. • f. Add 8.0 ml of complete growth medium and aspirate cells by gently pipetting. • g. Transfer the cell suspension to a centrifuge tube and centrifuge at 800-1000 rpm for 3-5 minutes. • h. Discard the supernatant using a vacuum pump. • i. Add appropriate volume of complete medium. Suspend the cell pellet by gently pipetting. • j. Count the cell numbers with Vi-cell XR and adjust cells to appropriate density. • k. Add 100 μL of cell suspension to 96-well opaque-walled clear bottom plates according to the planned plate layout and place the plates in the CO2 incubator overnight. • l. Plate layout:
(§5) • Plate preparation of testing articles. 10 mM stock solution of each one of the compounds (provided as powder) was prepared in DMSO. […] 0.5 μL of each of the diluted compounds was transferred to the wells containing 100 μL of the culture medium. The total dilution was 200 fold. Cells were incubated with the compounds for 72 hours at 5% CO2, 37° C.
(§6) • Thaw the CellTiter-Glo buffer and equilibrate to room temperature prior to use. • Equilibrate the lyophilized CellTiter-Glo substrate to room temperature prior to use. • Transfer the appropriate volume of CellTiter-Glo buffer into the amber bottle containing CellTiter-Glo substrate to reconstitute the lyophilized enzyme/substrate mixture. This forms the CellTiter-Glo reagent. • Mix by gently vortexing, swirling or by inverting the contents to obtain a homogeneous solution. The CellTiter-Glo substrate should go into solution easily in less than one minute.
(§7) • Observe the cell morphology under an inverted microscope after corresponding treatment. • Equilibrate the plate and its contents to room temperature for approximately 30 minutes. • Add 100 μL of CellTiter-Glo reagent to the assay plate by Multidrop Combi instrument. • Mix contents for 10 minutes on an orbital shaker to induce cell lysis. • Allow the plate to incubate at room temperature for 10 minutes to stabilize luminescent signal. • Paste the clear bottom with white back seal and record luminescence with Enspire. The settings should be: Luminescence, measurement time 0.1 ms.
(§8) Inhibition (%) and absolute IC50 (μM) of each compound was calculated with XLFit curve fitting software that is compatible to Activity Base.
On the technique in general: In ATP-based viability assays light output follows the ATP content of the culture.

In assay [2] the test system is PANC-1, pancreas ductal carcinoma. The description is as above. The method, then: as §1, §2, §3, §4, §5, §6, §7, §8
The test system of the next assay is A549, lung carcinoma. The assay is described as above. The procedure: as §1, §2, §3, §4, §5, §6, §7, §8
Assay [3] relates to AsPC-1, pancreas, ductal carcinoma. The assay is described as above. The method, then:
as §1, §2, §3, §4, §5, §6, §7, §8

For assay [4], the system named is T47D, breast ductal carcinoma. The assay is described as above. Particulars: T47D. The procedure:
as §1, §2, §3, §4, §5, §6, §7, §8

In assay [5] the test system is PANC-1 (pancreatic carcinoma). Briefly: XTT cytotoxicity assay (Pharma Seed). Particulars: Homo sapiens, 48 hours, 20, 10, 5, 1 μM, assay medium 1% FBS. The method, then:
In this study, the cytotoxicity of several compounds of the present invention on lung and pancreatic cancer cell was evaluated.
PANC-1 (pancreatic carcinoma) culture medium: DMEM (High Glucose), supplemented with 10% FBS (heat inactivated), 2 mM L-glutamine, and 1% of Pen/Strep/Amp solution. PANC-1 assay medium: DMEM (High Glucose), supplemented with 1% FBS (heat inactivated), 2 mM L-glutamine, and 1% of Pen/Strep/Amp solution.
Each of the tested compounds was dissolved in DMSO to reach a stock concentration of 20 mM (and stored at −15° C.-−25° C. until use. Compound Ia28 (MW 484 g/mol, 3.05 mg total) was dissolved in 0.315 mL; compound Ia9 (MW 484 g/mol, 2.33 mg total) was dissolved in 0.241 mL; and compound Ia6 (MW 428.3 g/mol, 2.25 mg total) was dissolved in 0.262 mL.
On the day of incubation with the cells, each compound was diluted in DMSO to reach 2 mM, 1 mM, 0.5 mM, 0.1 mM stock concentrations (1:10, 1:20, 1:40 and 1:200), and each of these stocks was further diluted in assay medium 1:100 for final concentration of 20 μM, 10 μM, 5 μM, and 1 μM.
Part 1—cell number calibration. PANC-1 and A549 cells were each plated in a 96 well plate, in their culture medium, at various cell concentrations per well, in triplicates, and were allowed to attach for 24 hours. Thereafter, culture medium was discarded, assay medium was added, and the cells were incubated for additional 72 hours. Finally, assay medium was discarded, and fresh culture medium was added to the cells along with 50 μl XTT reagent. The OD was measured every two hours for 6 hours (three times).
The highest cells number/well were chosen for part 2 as follows: PANC-1 at 7,500 cells per well, A549 at 5000 cells per well.
Part 2—cells incubation with tested compounds. PANC-1 and A549 cells were plated in a 96 well plate, in their culture medium, at the optimal cell concentration according to the results from the previous section and were allowed to attach for 24 hours. Thereafter, the culture medium was discarded, and fresh assay medium was added to the cells, supplemented with elevating compound concentrations. Triton 0.1% was used as positive control for cell death. The cells were incubated for another 48 hours (TBD upon microscopic observation). Finally, fresh culture medium was added to the cells along with 50 μl XTT reagent. The OD was measured at the optimal time point according to the results in the previous section.

[6] abbreviates: 72 hours, compounds 10 μM starting, STS 2 μM starting, 10-pt, 3-fold dilution.
[7] abbreviates: Homo sapiens, 72 h, read-out: IC50 (absolute IC50).

As to `CCCCCc1cc2c(c(O)c1C(=O)N/N=C/c1ncccn1)[C@@H]1C=C(C)CC[C@H]1C(C)(C)O2` [Ia16, (6aR,10aR)-1-hydroxy-6,6,9-trimethyl-3-pentyl-N′-((E)-pyrimidin-2-ylmethylene)-6a,7,8,10a-tetrahydro-6H-benzo[c]chromene-2-carbohydrazide], the Inhibition in assay [1] (setting [6]) was 73.80%; in assay [2] (PANC-1, 72 hours, compounds 10 μM starting, STS 2 μM starting, 10-pt, 3-fold dilution) it was 85.71%; in the assay on A549, lung carcinoma (A549, 72 hours, compounds 10 μM starting, STS 2 μM starting, 10-pt, 3-fold dilution) it was 70.01%; in assay [3] (AsPC-1, 72 hours, compounds 10 μM starting, STS 2 μM starting, 10-pt, 3-fold dilution) it was 67.70%; in assay [4] (setting [6]) it was 47.20%. In addition, the 50% inhibitory concentration (IC50) in assay [1] (setting [7]) is 3.37 µM; in assay [2] (Homo sapiens, PANC-1, 72 h, read-out: IC50 (absolute IC50)), 1.88 µM; in the assay with A549, lung carcinoma (Homo sapiens, A549, 72 h, read-out: IC50 (absolute IC50)) it was 5.53 µM; in assay [3] (Homo sapiens, ASPC1, 72 h, read-out: IC50 (absolute IC50)) it was 4.34 µM; in assay [4] (setting [7]) it was over 10 µM; in assay [5], 7 µM.

As a reminder, the Inhibition is the share of the control response that was lost under treatment. Low values mean little suppression, high ones strong suppression. Usually IC50 stands for the midpoint of a concentration-inhibition curve.

Source of the values: US20210087159A1, “TETRAHYDROCANNABINOLIC- CA[…] DERIVATIVES AND USES THEREOF” (AL&AM […]., priority 2018, published 2021).
